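GI50 marks 50% less growth. TGI: total growth inhibition.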 Numbered stars: 1 amine (or outer) side, 2 acyl side, 3 side chain; on linkers, the order of the positions; unused ones are H or OH. Bridge positions count the residues as written; N and C are the ends. Square brackets hold non-standard residues; d marks the D form. Peptide text beside a SMILES is read from it. I, II: the chains in the order shown. Actinocin(9to1) = Cc1c2oc3c(C)ccc(C(=O)[*:1])c3nc-2c(C(=O)[*:2])c(N)c1=O; aThr = C[C@H](O)[C@H](N)C(=O)O; NMeV = CN[C@H](C(=O)O)C(C)C; Sar = CNCC(=O)O
Legend:
Assay in all cases: NCI-60 cell line screen, 384-well format
A498 renal = test system: A498 renal
A549 NSCLC = test system: A549 NSCLC
ACHN renal = test system: ACHN renal
BT-549 breast = test system: BT-549 breast
CAKI-1 renal = test system: CAKI-1 renal
COLO 205 colon = test system: COLO 205 colon
DU-145 prostate = test system: DU-145 prostate
EKVX NSCLC = test system: EKVX NSCLC
HCC-2998 colon = test system: HCC-2998 colon
HCT-116 colon = test system: HCT-116 colon
HCT-15 colon = test system: HCT-15 colon
HL-60(TB) leukemia = test system: HL-60(TB) leukemia
HOP-62 NSCLC = test system: HOP-62 NSCLC
HOP-92 NSCLC = test system: HOP-92 NSCLC
HS 578T breast = test system: HS 578T breast
HT29 colon = test system: HT29 colon
IGROV1 ovarian = test system: IGROV1 ovarian
KM12 colon = test system: KM12 colon
LOX IMVI melanoma = test system: LOX IMVI melanoma
M14 melanoma = test system: M14 melanoma
MALME-3M melanoma = test system: MALME-3M melanoma
MCF7 breast = test system: MCF7 breast
MDA-MB-231 breast = test system: MDA-MB-231 breast
MDA-MB-435 melanoma = test system: MDA-MB-435 melanoma
MDA-MB-468 breast = test system: MDA-MB-468 breast
MOLT-4 leukemia = test system: MOLT-4 leukemia
NCI-H226 lung = test system: NCI-H226 lung
NCI-H23 lung = test system: NCI-H23 lung
NCI-H322M lung = test system: NCI-H322M lung
NCI-H460 NSCLC = test system: NCI-H460 NSCLC
NCI-H522 lung = test system: NCI-H522 lung
NCI/ADR-RES ovarian = test system: NCI/ADR-RES ovarian
OVCAR-3 ovarian = test system: OVCAR-3 ovarian
OVCAR-4 ovarian = test system: OVCAR-4 ovarian
OVCAR-5 ovarian = test system: OVCAR-5 ovarian
OVCAR-8 ovarian = test system: OVCAR-8 ovarian
PC-3 prostate = test system: PC-3 prostate
RPMI-8226 leukemia = test system: RPMI-8226 leukemia
RXF 393 renal = test system: RXF 393 renal
SF-268 CNS = test system: SF-268 CNS
SF-295 CNS = test system: SF-295 CNS
SF-539 CNS = test system: SF-539 CNS
SK-MEL-28 melanoma = test system: SK-MEL-28 melanoma
SK-MEL-5 melanoma = test system: SK-MEL-5 melanoma
SK-OV-3 ovarian = test system: SK-OV-3 ovarian
SN12C renal = test system: SN12C renal
SNB-19 CNS = test system: SNB-19 CNS
SNB-75 CNS = test system: SNB-75 CNS
SR leukemia = test system: SR leukemia
T-47D breast = test system: T-47D breast
TK-10 renal = test system: TK-10 renal
U251 glioblastoma = test system: U251 glioblastoma
UACC-257 melanoma = test system: UACC-257 melanoma
UACC-62 melanoma = test system: UACC-62 melanoma
786-0 renal = test system: 786-0 renal
SW-620 colon = test system: SW-620 colon
UO-31 renal = test system: UO-31 renal

`NC1(C(=O)N[C@@H](CCO)c2ccc(Cl)cc2)CCN(c2ncnc3[nH]ccc23)CC1` showed a GI50 (A498 renal) of 0.394 µM, a TGI (A498 renal) of 26.7 µM and a GI50 (A549 NSCLC) of 19.7 µM. The TGI (A549 NSCLC) was > 100 µM, the GI50 (ACHN renal) was 13.1 µM and the TGI (ACHN renal) was > 100 µM. The GI50 (BT-549 breast) was 0.863 µM, the TGI (BT-549 breast) was 18.9 µM and the GI50 (CAKI-1 renal) was 10.9 µM. The TGI (CAKI-1 renal) was > 100 µM, the GI50 (COLO 205 colon) was 5.9 µM and the TGI (COLO 205 colon) was 73.6 µM. For the same compound, the GI50 (DU-145 prostate) was 22.6 µM, the TGI (DU-145 prostate) was > 100 µM and the GI50 (EKVX NSCLC) was 5.28 µM. The TGI (EKVX NSCLC) was > 100 µM, the GI50 (HCC-2998 colon) was 2.61 µM and the TGI (HCC-2998 colon) was > 100 µM. For the same compound, the GI50 (HCT-116 colon) was 10.6 µM, the TGI (HCT-116 colon) was > 100 µM and the GI50 (HCT-15 colon) was 14.7 µM. For the same compound, the TGI (HCT-15 colon) was > 100 µM, the GI50 (HL-60(TB) leukemia) was 12.7 µM and the TGI (HL-60(TB) leukemia) was 25.9 µM. The GI50 (HOP-62 NSCLC) was 21.1 µM, the TGI (HOP-62 NSCLC) was > 100 µM and the GI50 (HOP-92 NSCLC) was > 100 µM. For the same compound, the TGI (HOP-92 NSCLC) was > 100 µM, the GI50 (HS 578T breast) was 0.6 µM and the TGI (HS 578T breast) was 47 µM. For the same compound, the GI50 (HT29 colon) was 4.22 µM, the TGI (HT29 colon) was > 100 µM and the GI50 (IGROV1 ovarian) was 0.121 µM. For the same compound, the TGI (IGROV1 ovarian) was 2.09 µM, the GI50 (KM12 colon) was 1.08 µM and the TGI (KM12 colon) was > 100 µM. For the same compound, the GI50 (LOX IMVI melanoma) was 22.4 µM, the TGI (LOX IMVI melanoma) was > 100 µM and the GI50 (M14 melanoma) was 6.69 µM. For the same compound, the TGI (M14 melanoma) was 27.6 µM, the GI50 (MALME-3M melanoma) was 2.43 µM and the TGI (MALME-3M melanoma) was 15.3 µM. For the same compound, the GI50 (MCF7 breast) was 0.437 µM, the TGI (MCF7 breast) was > 100 µM and the GI50 (MDA-MB-231 breast) was 84.9 µM. The TGI (MDA-MB-231 breast) was > 100 µM, the GI50 (MDA-MB-435 melanoma) was 6.05 µM and the TGI (MDA-MB-435 melanoma) was 87.8 µM. It also gave a GI50 (MDA-MB-468 breast) of 0.279 µM, a TGI (MDA-MB-468 breast) of 14.7 µM and a GI50 (MOLT-4 leukemia) of 0.453 µM. It also gave a TGI (MOLT-4 leukemia) of 1.88 µM, a GI50 (NCI-H226 lung) of 13 µM and a TGI (NCI-H226 lung) of 78.6 µM. For the same compound, the GI50 (NCI-H23 lung) was 15 µM, the TGI (NCI-H23 lung) was 65.8 µM and the GI50 (NCI-H322M lung) was 16.2 µM. The TGI (NCI-H322M lung) was > 100 µM, the GI50 (NCI-H460 NSCLC) was 0.631 µM and the TGI (NCI-H460 NSCLC) was 25.2 µM. The GI50 (NCI-H522 lung) was 9.74 µM, the TGI (NCI-H522 lung) was 24.2 µM and the GI50 (NCI/ADR-RES ovarian) was > 100 µM. For the same compound, the TGI (NCI/ADR-RES ovarian) was > 100 µM, the GI50 (OVCAR-3 ovarian) was 23.3 µM and the TGI (OVCAR-3 ovarian) was > 100 µM. The GI50 (OVCAR-4 ovarian) was 88.3 µM, the TGI (OVCAR-4 ovarian) was > 100 µM and the GI50 (OVCAR-5 ovarian) was 21.9 µM. For the same compound, the TGI (OVCAR-5 ovarian) was 96.1 µM, the GI50 (OVCAR-8 ovarian) was 26.4 µM and the TGI (OVCAR-8 ovarian) was > 100 µM. For the same compound, the GI50 (PC-3 prostate) was 0.629 µM, the TGI (PC-3 prostate) was > 100 µM and the GI50 (RPMI-8226 leukemia) was 21.5 µM. It also gave a TGI (RPMI-8226 leukemia) of 84 µM, a GI50 (RXF 393 renal) of 1.2 µM and a TGI (RXF 393 renal) of 44 µM. The GI50 (SF-268 CNS) was 23.8 µM, the TGI (SF-268 CNS) was > 100 µM and the GI50 (SF-295 CNS) was 1.14 µM. For the same compound, the TGI (SF-295 CNS) was 17 µM, the GI50 (SF-539 CNS) was 0.41 µM and the TGI (SF-539 CNS) was 57.7 µM. For the same compound, the GI50 (SK-MEL-28 melanoma) was 4.49 µM, the TGI (SK-MEL-28 melanoma) was > 100 µM and the GI50 (SK-MEL-5 melanoma) was 10 µM. The TGI (SK-MEL-5 melanoma) was 29.6 µM, the GI50 (SK-OV-3 ovarian) was 1.02 µM and the TGI (SK-OV-3 ovarian) was > 100 µM. The GI50 (SN12C renal) was 0.815 µM, the TGI (SN12C renal) was 25.5 µM and the GI50 (SNB-19 CNS) was 18.8 µM. The TGI (SNB-19 CNS) was > 100 µM, the GI50 (SNB-75 CNS) was 0.366 µM and the TGI (SNB-75 CNS) was 35.8 µM. The GI50 (SR leukemia) was 1.07 µM, the TGI (SR leukemia) was 4.49 µM and the GI50 (T-47D breast) was 0.423 µM. For the same compound, the TGI (T-47D breast) was > 100 µM, the GI50 (TK-10 renal) was 3.3 µM and the TGI (TK-10 renal) was > 100 µM. For the same compound, the GI50 (U251 glioblastoma) was 5.38 µM, the TGI (U251 glioblastoma) was > 100 µM and the GI50 (UACC-257 melanoma) was 4.55 µM. It also gave a TGI (UACC-257 melanoma) of 25.7 µM, a GI50 (UACC-62 melanoma) of 2.2 µM and a TGI (UACC-62 melanoma) of 18.6 µM.

For `Cc1c2oc3c(C)ccc(C(=O)N[C@@H]4C(=O)N[C@H](C(C)C)C(=O)N5CCC[C@H]5C(=O)N(C)CC(=O)N(C)[C@@H](C(C)C)C(=O)O[C@H]4C)c3nc-2c(C(=O)N[C@@H]2C(=O)N[C@H](C(C)C)C(=O)N3CCC[C@H]3C(=O)N(C)CC(=O)N(C)[C@@H](C(C)C)C(=O)O[C@H]2C)c(N)c1=O` (I: [aThr][dV]P[Sar][NMeV] / II: [aThr][dV]P[Sar][NMeV]; ester I:1-I:C, II:1-II:C; linker I:N-II:N via Actinocin(9to1)), the TGI (786-0 renal) was 0.0188 µM, the TGI (A498 renal) was < 0.0165 µM and the TGI (A549 NSCLC) was 1.37 µM. It also gave a TGI (ACHN renal) of 0.0165 µM, a TGI (EKVX NSCLC) of 0.0435 µM and a TGI (HCT-15 colon) of 0.069 µM. For the same compound, the TGI (IGROV1 ovarian) was 0.0138 µM, the TGI (M14 melanoma) was < 0.0112 µM and the GI50 (NCI/ADR-RES ovarian) was 0.571 µM. For the same compound, the TGI (NCI/ADR-RES ovarian) was 2.83 µM, the TGI (OVCAR-4 ovarian) was < 0.0266 µM and the TGI (PC-3 prostate) was 0.0571 µM. The TGI (SW-620 colon) was < 0.0351 µM, the GI50 (UO-31 renal) was < 0.0119 µM and the TGI (UO-31 renal) was 0.0268 µM.

From PubChem BioAssay (NCI)
